Measurements published in BigSolDB 2.1.

O=C1OC[C@H]2[C@@H]1N(Cc1ccccc1)C(=O)N2Cc1ccccc1
Settings	solubility (mole fraction)
in DMF, 293.15 K	0.15
in DMF, 298.15 K	0.163
in DMF, 303.15 K	0.179
in DMF, 308.15 K	0.196
in DMF, 312.65 K	0.211
in DMF, 316.05 K	0.224
in DMF, 320.35 K	0.242
in THF, 293.35 K	0.074
in THF, 298.15 K	0.0845
in THF, 303.15 K	0.0971
in THF, 308.15 K	0.111
in THF, 313.05 K	0.126
in THF, 318.15 K	0.142
in THF, 323.25 K	0.165
in dichloromethane, 293.25 K	0.121
in dichloromethane, 296.45 K	0.127
in dichloromethane, 299.35 K	0.132
in dichloromethane, 302.25 K	0.138
in dichloromethane, 305.45 K	0.144
in dichloromethane, 308.15 K	0.149
in dichloromethane, 311.35 K	0.155
in ethyl acetate, 293.65 K	0.0221
in ethyl acetate, 298.35 K	0.0271
in ethyl acetate, 304.15 K	0.0332
in ethyl acetate, 308.25 K	0.0391
in ethyl acetate, 314.15 K	0.0487
in ethyl acetate, 318.15 K	0.0576
in ethyl acetate, 323.75 K	0.0716
in methanol, 287.15 K	0.0034
in methanol, 293.15 K	0.0049
in methanol, 298.15 K	0.0067
in methanol, 303.25 K	0.0088
in methanol, 308.05 K	0.0119
in methanol, 313.45 K	0.016
in methanol, 318.15 K	0.0211
in toluene, 291.15 K	0.0073
in toluene, 298.15 K	0.0101
in toluene, 303.05 K	0.0125
in toluene, 308.65 K	0.0157
in toluene, 313.25 K	0.0197
in toluene, 317.95 K	0.0242
in toluene, 323.75 K	0.0316
